Source: patent publication US20160367623A1, “AGONISTS OF GUANYLATE CYCLASE USEFUL FOR THE TREATMENT OF GASTROINTESTINAL DISORDERS, INFLAMMATION, CANCER AND OTHER DISORDERS” (priority 2015, published 2016)
Bridge positions count the residues as written; N and C are the ends. Ends that are not written are not given here.

System: patients with chronic idiopathic constipation (CIC)
Assay: Second phase 3 CIC trial: change from baseline in stool consistency (BSFS)
Format: in vivo, human
[1] = 6 mg, Week 9, ITT Population-Excluding Duplicate Patients
[2] = 6 mg, Week 10, All Randomized (includes Duplicate Patients)
[3] = 6 mg, Week 10, ITT Population-Excluding Duplicate Patients
[4] = 6 mg, Week 11, All Randomized (includes Duplicate Patients)
[5] = 6 mg, Week 11, ITT Population-Excluding Duplicate Patients
[6] = 6 mg, Week 12, All Randomized (includes Duplicate Patients)
[7] = 6 mg, Week 12, ITT Population-Excluding Duplicate Patients
[8] = 6 mg, overall average estimate across the 12-week treatment period, All Randomized (includes Duplicate Patients)
[9] = 6 mg, overall average estimate across the 12-week treatment period, ITT Population
[10] = 6 mg, overall average estimate across the 12-week treatment period, ITT Population-Excluding Duplicate Patients

Substance: Asn^1-Asp^2-Glu^3-Cys^4-Glu^5-Leu^6-Cys^7-Val^8-Asn^9-Val^10-Ala^11-Cys^12-Thr^13-Gly^14-Cys^15-Leu^16 (NDECELCVNVACTGCL; disulfide 4-12, 7-15) [Plecanatide, uroguanylin analogue, guanylate cyclase-C agonist; (C4:C12, C7:C15) bicycle peptide]
- Change from Baseline in Stool Consistency, LS Mean (SE) (6 mg, Week 9, All Randomized (includes Duplicate Patients)): 1.54 (0.073)
- Change from Baseline in Stool Consistency, Difference from Placebo (6 mg, Week 9, ITT Population): 0.68
- Change from Baseline in Stool Consistency, LS Mean (SE) (6 mg, Week 9, ITT Population): 1.57 (0.075)
- Change from Baseline in Stool Consistency, Mean (SD) (6 mg, Week 9, ITT Population): 1.62 (1.507)
- Change from Baseline in Stool Consistency, Difference from Placebo [1]: 0.68
- Change from Baseline in Stool Consistency, LS Mean (SE) [1]: 1.59 (0.075)
- Change from Baseline in Stool Consistency, Mean (SD) [1]: 1.63 (1.510)
- Change from Baseline in Stool Consistency, Difference from Placebo [2]: 0.62
- Change from Baseline in Stool Consistency, LS Mean (SE) [2]: 1.52 (0.073)
- Change from Baseline in Stool Consistency, Difference from Placebo (6 mg, Week 10, ITT Population): 0.62
- Change from Baseline in Stool Consistency, LS Mean (SE) (6 mg, Week 10, ITT Population): 1.55 (0.075)
- Change from Baseline in Stool Consistency, Mean (SD) (6 mg, Week 10, ITT Population): 1.59 (1.432)
- Change from Baseline in Stool Consistency, Difference from Placebo [3]: 0.63
- Change from Baseline in Stool Consistency, LS Mean (SE) [3]: 1.57 (0.075)
- Change from Baseline in Stool Consistency, Mean (SD) [3]: 1.60 (1.437)
- Change from Baseline in Stool Consistency, Difference from Placebo [4]: 0.58
- Change from Baseline in Stool Consistency, LS Mean (SE) [4]: 1.50 (0.073)
- Change from Baseline in Stool Consistency, Difference from Placebo (6 mg, Week 11, ITT Population): 0.57
- Change from Baseline in Stool Consistency, LS Mean (SE) (6 mg, Week 11, ITT Population): 1.53 (0.075)
- Change from Baseline in Stool Consistency, Mean (SD) (6 mg, Week 11, ITT Population): 1.58 (1.499)
- Change from Baseline in Stool Consistency, Difference from Placebo [5]: 0.59
- Change from Baseline in Stool Consistency, LS Mean (SE) [5]: 1.55 (0.076)
- Change from Baseline in Stool Consistency, Mean (SD) [5]: 1.59 (1.504)
- Change from Baseline in Stool Consistency, Difference from Placebo [6]: 0.48
- Change from Baseline in Stool Consistency, LS Mean (SE) [6]: 1.48 (0.074)
- Change from Baseline in Stool Consistency, Difference from Placebo (6 mg, Week 12, ITT Population): 0.49
- Change from Baseline in Stool Consistency, LS Mean (SE) (6 mg, Week 12, ITT Population): 1.51 (0.076)
- Change from Baseline in Stool Consistency, Mean (SD) (6 mg, Week 12, ITT Population): 1.58 (1.487)
- Change from Baseline in Stool Consistency, Difference from Placebo [7]: 0.51
- Change from Baseline in Stool Consistency, LS Mean (SE) [7]: 1.53 (0.076)
- Change from Baseline in Stool Consistency, Mean (SD) [7]: 1.59 (1.492)
- Change from Baseline in Stool Consistency, Difference from Placebo [8]: 0.63
- Change from Baseline in Stool Consistency, LS Mean (SE) [8]: 1.47 (0.059)
- Change from Baseline in Stool Consistency, Difference from Placebo [9]: 0.63
- Change from Baseline in Stool Consistency, LS Mean (SE) [9]: 1.50 (0.061)
- Change from Baseline in Stool Consistency, Difference from Placebo [10]: 0.64
- Change from Baseline in Stool Consistency, LS Mean (SE) [10]: 1.52 (0.061)
- Change from Baseline in Stool Consistency, Mean (SD) (Active Combined, Post-Treatment Week 13, All Randomized (includes Duplicate Patients)): 1.15 (1.387)
- Change from Baseline in Stool Consistency, Mean (SD) (Active Combined, Post-Treatment Week 13, ITT Population): 1.14 (1.392)
- Change from Baseline in Stool Consistency, Mean (SD) (Active Combined, Post-Treatment Week 13, ITT Population-Excluding Duplicate Patients): 1.14 (1.397)
- Change from Baseline in Stool Consistency, Mean (SD) (Active Combined, Post-Treatment Week 14, All Randomized (includes Duplicate Patients)): 1.12 (1.394)
- Change from Baseline in Stool Consistency, Mean (SD) (Active Combined, Post-Treatment Week 14, ITT Population): 1.12 (1.379)
- Change from Baseline in Stool Consistency, Mean (SD) (Active Combined, Post-Treatment Week 14, ITT Population-Excluding Duplicate Patients): 1.12 (1.384)
- Change from Baseline in Stool Consistency, Mean (SD) (Active Combined, Week 1, All Randomized (includes Duplicate Patients)): 1.41 (1.482)
- Change from Baseline in Stool Consistency, Mean (SD) (Active Combined, Week 1, ITT Population): 1.42 (1.490)
- Change from Baseline in Stool Consistency, Mean (SD) (Active Combined, Week 1, ITT Population-Excluding Duplicate Patients): 1.43 (1.482)
- Change from Baseline in Stool Consistency, Mean (SD) (Active Combined, Week 2, All Randomized (includes Duplicate Patients)): 1.41 (1.563)
- Change from Baseline in Stool Consistency, Mean (SD) (Active Combined, Week 2, ITT Population): 1.42 (1.571)
- Change from Baseline in Stool Consistency, Mean (SD) (Active Combined, Week 2, ITT Population-Excluding Duplicate Patients): 1.43 (1.570)
- Change from Baseline in Stool Consistency, Mean (SD) (Active Combined, Week 3, All Randomized (includes Duplicate Patients)): 1.48 (1.526)
- Change from Baseline in Stool Consistency, Mean (SD) (Active Combined, Week 3, ITT Population): 1.49 (1.527)
- Change from Baseline in Stool Consistency, Mean (SD) (Active Combined, Week 3, ITT Population-Excluding Duplicate Patients): 1.49 (1.532)
- Change from Baseline in Stool Consistency, Mean (SD) (Active Combined, Week 4, ITT Population): 1.48 (1.550)
- Change from Baseline in Stool Consistency, Mean (SD) (Active Combined, Week 4, ITT Population-Excluding Duplicate Patients): 1.49 (1.557)
- Change from Baseline in Stool Consistency, Mean (SD) (Active Combined, Week 5, ITT Population): 1.63 (1.530)
- Change from Baseline in Stool Consistency, Mean (SD) (Active Combined, Week 5, ITT Population-Excluding Duplicate Patients): 1.64 (1.535)
- Change from Baseline in Stool Consistency, Mean (SD) (Active Combined, Week 6, ITT Population): 1.62 (1.525)
- Change from Baseline in Stool Consistency, Mean (SD) (Active Combined, Week 6, ITT Population-Excluding Duplicate Patients): 1.62 (1.524)
- Change from Baseline in Stool Consistency, Mean (SD) (Active Combined, Week 7, ITT Population): 1.57 (1.494)
- Change from Baseline in Stool Consistency, Mean (SD) (Active Combined, Week 7, ITT Population-Excluding Duplicate Patients): 1.58 (1.498)
- Change from Baseline in Stool Consistency, Mean (SD) (Active Combined, Week 8, ITT Population): 1.62 (1.520)
- Change from Baseline in Stool Consistency, Mean (SD) (Active Combined, Week 8, ITT Population-Excluding Duplicate Patients): 1.62 (1.523)
- Change from Baseline in Stool Consistency, Mean (SD) (Active Combined, Week 9, ITT Population): 1.65 (1.487)
- Change from Baseline in Stool Consistency, Mean (SD) (Active Combined, Week 9, ITT Population-Excluding Duplicate Patients): 1.65 (1.489)
- Change from Baseline in Stool Consistency, Mean (SD) (Active Combined, Week 10, ITT Population): 1.62 (1.485)
- Change from Baseline in Stool Consistency, Mean (SD) (Active Combined, Week 10, ITT Population-Excluding Duplicate Patients): 1.62 (1.491)
- Change from Baseline in Stool Consistency, Mean (SD) (Active Combined, Week 11, ITT Population): 1.58 (1.547)
- Change from Baseline in Stool Consistency, Mean (SD) (Active Combined, Week 11, ITT Population-Excluding Duplicate Patients): 1.59 (1.548)
- Change from Baseline in Stool Consistency, Mean (SD) (Active Combined, Week 12, ITT Population): 1.64 (1.483)
- Change from Baseline in Stool Consistency, Mean (SD) (Active Combined, Week 12, ITT Population-Excluding Duplicate Patients): 1.64 (1.484)
